From patent US20070275923A1, “CATIONIC PEPTIDES FOR siRNA [sequence] [sequence]” (NASTECH PHARMACEUTICAL COMPANY INC., priority 2006, published 2007) come the findings set out here.

Non-standard residues stand in square brackets, D forms with d. Residues, ends and D or L forms follow the SMILES beside them. *: point of attachment. Propanoyl(3-maleimido) = O=C1C=CC(=O)N1CCC(=O)*

Series [1] concerns Mouse tail fibroblast (MTF) cells. Put plainly: siRNA cell-uptake and MFI measured by FACS after peptide-mediated transfection of labeled siRNA. It counts as cell-based. The conditions noted are these: for % Cell-Uptake: % of total cells with intracellular labeled siRNA; for MFI: relative value. Here is the method:
SiRNA cell uptake was measured by FACS.
For the instant example, cell-uptake, mean fluorescent intensity (MFI) and cell viability was measured for each peptide. siRNA cell-uptake was measured by the presence of intracellular labeled siRNA. The cell-uptake assay determined the percentage of cells that contain the labeled siRNA. Mean Fluorescence Intensity (MFI) was used to determine the relative mean quantity of labeled siRNA that entered the cells.
A non-transfection, siRNA alone, control was also performed.
Within Table 3, “ND” means no data.
In general terms: In flow cytometry, cells or beads pass a laser one at a time.

A further series in a line: in vitro. The conditions noted are these: C57BL/6J, mouse, mouse tail fibroblast (MTF) cells. Here is the method: Mouse tail fibroblast (MTF) cells were derived from the tails of C57BL/6J mice. Tails were removed, immersed in 70% ethanol and then cut into small sections with a razor blade. The sections were washed three times with PBS and then incubated in a shaker at 37° C. with 0.5 mg/mL collagenase, 100 units/mL penicillin and 100 μg/mL streptomycin to disrupt tissue. Tail sections were then cultured in complete media (Dulbecco's Modified […] Medium with 20% FBS, 1 mM sodium pyruvate, nonessential amino acids and 100 units/mL penicillin and 100 μg/mL streptomycin) until cells were established. Cells were cultured at 37° C., 5% CO2 in complete media as outlined above.
Cells were be plated per well in a microtiter plate the day before transfection in complete media. The siRNA was be labeled, for example with a FAM, Alexa488, Alexa647 or Cy-5 conjugate. The cationic polymer peptide and siRNA were mixed in the microtiter plate complex with cells previously with OptiMEM. 7-AAD was added to each transfection to measure cell viability. Cells were transfected for three hours at 37° C., 5% CO2. The transfection mixture was removed and the cells were washed with TE buffer for about 10 minutes at 37° C., 5% CO2. Transfected cells were transferred to a V bottom plate and centrifuged. The TE buffer was removed and the transfected cells were resuspended in fluorescence activated cell sorting (FACS) buffer.
A non-transfection, siRNA alone, control was also performed. The peptide PN183 served herein as a positive cell-uptake control.
Cell-uptake is expressed as a percentage of the total cells with intracellular labeled siRNA. Cell Viability is also expressed as a percentage where 100% represents 100% viability. The MFI value is a relative value with a higher MFI value indicating a greater amount of labeled siRNA entered the cell. Within Table 3, “ND” means no data.

[2] abbreviates: peptide concentration 1 μM, 200 nM labeled siRNA.
The mark [3] stands for this setting: peptide concentration 1 μM, 200 nM labeled siRNA, higher = more labeled siRNA entered the cell.
The mark [4] stands for this setting: peptide concentration 10 μM, 200 nM labeled siRNA.
The mark [5] stands for this setting: peptide concentration 10 μM, 200 nM labeled siRNA, higher = more labeled siRNA entered the cell.
[6] abbreviates: peptide concentration 100 μM, 200 nM labeled siRNA.
Where [7] appears, read: peptide concentration 100 μM, 200 nM labeled siRNA, higher = more labeled siRNA entered the cell.

For `N=C(N)NCCC[C@@H](N)C(=O)N[C@@H](CCCNC(=N)N)C(=O)N[C@H](CCCNC(=N)N)C(=O)N[C@@H](CCCNC(=N)N)C(=O)N[C@H](CCCNC(=N)N)C(=O)N[C@@H](CCCNC(=N)N)C(=O)N[C@H](CCCNC(=N)N)C(=O)N[C@@H](CCCNC(=N)N)C(=O)N[C@H](CCCNC(=N)N)C(=O)N[C@@H](CCCNC(=N)N)C(=O)N[C@H](CCCNC(=N)N)C(=O)N[C@@H](CCCNC(=N)N)C(=O)N[C@H](CCCNC(=N)N)C(=O)N[C@@H](CCCNC(=N)N)C(=O)N[C@H](CCCNC(=N)N)C(=O)N[C@@H](CCCNC(=N)N)C(=O)N[C@H](CCCNC(=N)N)C(=O)N[C@@H](CCCNC(=N)N)C(=O)N[C@H](CCCNC(=N)N)C(=O)N[C@@H](CCCNC(=N)N)C(N)=O` [PN912, NH2-(Xaa-Arg)10-amide] (H-[dR]R[dR]R[dR]R[dR]R[dR]R[dR]R[dR]R[dR]R[dR]R[dR]R-NH2), the “intracellular delivery of siRNA (verbal conclusion from cell-uptake and cell viability)” value in series [1] (conclusion drawn from Table 3) was “effective intracellular delivery of siRNA without negatively impacting cell viability”. Further, the “% Cell-Uptake” value in series [1] (setting [2]) is given as 61.2%; in series [1] (setting [4]) it was 73.3%; in series [1] (setting [6]), 86.2%. Further, the MFI was determined as 4.32 in series [1] (setting [3]), 4.72 in series [1] (setting [5]) and 5.41 in series [1] (setting [7]). For the same molecule, the viability – broadly, a read-out of living cells in per cent, often relative to untreated cells – at 3 h, 1 µM in the series “in vitro” is 96.9%. This molecule also returned a viability at 3 h, 10 µM in the series “in vitro” of 96.1%. The molecule further had a viability at 3 h, 100 µM in the series “in vitro” of 90%.

“H-KKKKKKKKKK-NH2 [PN932, NH2-(Lys)10-amide]”: the “% Cell-Uptake” value in series [1] (setting [2]) stood at 0.4%. For the same molecule, the “% Cell-Uptake” value in series [1] (setting [4]) worked out at 1%. Also, the “% Cell-Uptake” value in series [1] (setting [6]) is on record as 1%. In the series “in vitro”, this molecule returned a viability at 3 h, 1 µM of 97.3%; a viability at 3 h, 10 µM of 96.7%; a viability at 3 h, 100 µM of 98.4%.

As to `CC[C@H](C)[C@H](NC(=O)[C@H](CCCCN)NC(=O)[C@@H](NC(=O)[C@H](CCC(N)=O)NC(=O)[C@H](CCCNC(=N)N)NC(=O)[C@H](CS)NC(=O)[C@@H](NC(=O)[C@H](CO)NC(=O)[C@H](CCCNC(=N)N)NC(=O)[C@H](Cc1c[nH]cn1)NC(=O)[C@H](Cc1c[nH]cn1)NC(=O)[C@H](Cc1c[nH]cn1)NC(=O)[C@H](Cc1c[nH]cn1)NC(=O)[C@H](Cc1c[nH]cn1)NC(=O)[C@@H](N)Cc1c[nH]cn1)C(C)C)[C@@H](C)CC)C(=O)N[C@@H](CS)C(=O)N[C@@H](CCCNC(=N)N)C(=O)N[C@@H](CCCNC(=N)N)C(=O)N[C@@H](CCCNC(=N)N)C(=O)NCC(=O)NCC(=O)N[C@@H](CS)C(=O)N[C@@H](Cc1ccc(O)cc1)C(=O)N[C@@H](Cc1ccc(O)cc1)C(=O)N[C@@H](CCCCN)C(=O)N[C@@H](CS)C(=O)N[C@H](C(=O)N[C@@H](CC(N)=O)C(=O)N[C@@H](CCCNC(=N)N)C(=O)N1CCC[C@H]1C(=O)N[C@@H](Cc1ccc(O)cc1)C(N)=O)[C@@H](C)O` [PN951] (H-HHHHHHRSVCRQIKICRRRGGCYYKCTNRPY-NH2), the “% Cell-Uptake” value in series [1] (setting [2]) was 31.8%; in series [1] (setting [4]) it was 80.1%; in series [1] (setting [6]), 45.7%. Also, the MFI in series [1] (setting [3]) was found to be 4.02; in series [1] (setting [5]), 14.3; in series [1] (setting [7]), 9.19. In the series “in vitro”, this molecule registered a viability at 3 h, 1 µM of 97.2%. The molecule further yielded a viability at 3 h, 10 µM in “in vitro” of 99.1%. Besides, the viability at 3 h, 100 µM in “in vitro” came to 97.9%.

Regarding “H-KHKHKHKHKHKHKHKHKHKH-NH2 [PN938, NH2-(Lys-His)10-amide]”, the “% Cell-Uptake” value in series [1] (setting [2]) came to 0.6%. Also, in series [1] (setting [4]), the “% Cell-Uptake” value came to 0.5%. For the same molecule, the “% Cell-Uptake” value in series [1] (setting [6]) was determined as 5.9%. In “in vitro”, this molecule came in with a viability at 3 h, 1 µM of 97.9%; a viability at 3 h, 10 µM of 98.6%; a viability at 3 h, 100 µM of 98.8%.

As for “H-KETWWETWWTEWSQPGRKKRRQRRRPPQ-NH2 [PN183, reference compound]”, in series [1] (concentration not given), the percent cell-uptake result was “approximately 59%”. For the same molecule, the MFI in series [1] (concentration not given) is listed as about 11; in series [1] (setting [3]), 3.61; in series [1] (setting [5]), 3.77; in series [1] (setting [7]), 10.5. The “% Cell-Uptake” value in series [1] (setting [2]) is 9.3%; in series [1] (setting [4]) it was 47.4%; in series [1] (setting [6]), 58.9%. The molecule further returned a viability at 3 h, 1 µM in the series “in vitro” of 96%. Besides, in “in vitro”, the viability at 3 h, 10 µM is 96.8%. The viability at 3 h, 100 µM in “in vitro” was 76.7%.

Take `CC[C@H](C)[C@H](NC(=O)[C@H](C)NC(=O)CNC(=O)[C@H](Cc1ccccc1)NC(=O)[C@@H](NC(=O)[C@H](CCC(=O)O)NC(=O)[C@H](CC(N)=O)NC(=O)CNC(=O)[C@H](Cc1c[nH]c2ccccc12)NC(=O)[C@H](CCC(=O)O)NC(=O)CNC(=O)[C@H](CCSC)NC(=O)[C@@H](NC(=O)[C@H](CC(=O)O)NC(=O)[C@@H]1CCCN1C(=O)[C@H](CCC(N)=O)NC(=O)[C@H](CO)NC(=O)[C@H](CCCCN)NC(=O)[C@H](CCCCN)NC(=O)[C@H](CCCCN)NC(=O)[C@H](CCCCN)NC(=O)[C@H](CCCCN)NC(=O)[C@H](CCCCN)NC(=O)[C@H](CCCCN)NC(=O)[C@H](CCCCN)NC(=O)CCN1C(=O)C=CC1=O)[C@@H](C)CC)[C@@H](C)CC)C(=O)N[C@@H](C)C(=O)NCC(=O)N[C@@H](Cc1ccccc1)C(=O)N[C@@H](CC(C)C)C(=O)NCC(N)=O` [PN947] ({Propanoyl(3-maleimido)}-KKKKKKKKSQPDIMGEWGNEIFGAIAGFLG-NH2; N-terminus assumed): the “% Cell-Uptake” value in series [1] (setting [2]) is reported as 2.8%; in series [1] (setting [4]) it was 12.3%; in series [1] (setting [6]) it was 49.5%. For the same molecule, the figures for the MFI in series [1] (setting [3]), in series [1] (setting [5]) and in series [1] (setting [7]) were 1.23, 1.44 and 4.6, respectively. This molecule also returned a viability at 3 h, 1 µM in the series “in vitro” of 98.7%. Moreover, in “in vitro”, the viability at 3 h, 10 µM turned out to be 97.9%. This molecule also displayed a viability at 3 h, 100 µM in the series “in vitro” of 99.3%.
